Test results as given in ChEMBL document CHEMBL5154691, “Discovery of novel verinurad analogs as dual inhibitors of URAT1 and GLUT9 with improved Druggability for the treatment of hyperuricemia” (Eur J Med Chem, 2022).

Tests used:
[1] = Inhibition of URAT1 R487K mutant (unknown origin)-mediated 14C-uric acid uptake expressed in HEK293 cells using 14C-uric acid as substrate preincubated for 30 mins followed by substrate addition and measured after 15 mins by liquid scintillation counting analysis; type: cell-based; conditions: Homo sapiens
[2] = target: T1, Solute carrier family 22 member 12 (Homo sapiens, UniProt Q96S37); test: Inhibition of URAT1 (unknown origin)-mediated 14C-uric acid uptake expressed in HEK293 cells using 14C-uric acid as substrate preincubated for 30 mins followed by substrate addition and measured after 15 mins by liquid scintillation counting analysis; type: cell-based
T1 sequence (Q96S37 whole entry): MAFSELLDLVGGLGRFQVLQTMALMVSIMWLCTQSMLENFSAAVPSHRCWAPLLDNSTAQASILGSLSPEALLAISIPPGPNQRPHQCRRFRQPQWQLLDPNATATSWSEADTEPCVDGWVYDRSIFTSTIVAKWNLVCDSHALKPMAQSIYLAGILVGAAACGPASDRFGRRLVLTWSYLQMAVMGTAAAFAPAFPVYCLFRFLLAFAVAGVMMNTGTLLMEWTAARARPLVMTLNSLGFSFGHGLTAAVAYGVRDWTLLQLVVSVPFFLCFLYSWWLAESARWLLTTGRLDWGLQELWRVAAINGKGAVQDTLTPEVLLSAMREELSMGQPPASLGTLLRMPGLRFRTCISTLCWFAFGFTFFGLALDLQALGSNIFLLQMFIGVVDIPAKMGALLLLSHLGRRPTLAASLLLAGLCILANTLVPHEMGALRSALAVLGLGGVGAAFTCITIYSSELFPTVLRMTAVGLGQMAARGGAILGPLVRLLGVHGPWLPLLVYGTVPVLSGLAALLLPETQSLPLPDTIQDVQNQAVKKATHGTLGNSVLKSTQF

[3] = MRT (0 to infinity) in Sprague-Dawley rat at 5 mg/kg, po by LC-MS/MS analysis; type: ADME, organism-based; conditions: in vivo
[4] = Half life in Sprague-Dawley rat at 5 mg/kg, iv measured upto 36 hrs by LC-MS/MS analysis; type: ADME, organism-based; conditions: in vivo
[5] = Cytotoxicity against human HK-2 cells assessed as reduction in cell viability incubated for 48 hrs by MTT assay; type: toxicity, cell-based
[6] = Cmax in Sprague-Dawley rat at 5 mg/kg, po measured upto 36 hrs by LC-MS/MS analysis; type: ADME, organism-based; set-up: time < 36 hrs, dose 5 mg/kg, route po; conditions: in vivo
[7] = Inhibition of URAT1 R477K mutant (unknown origin)-mediated 14C-uric acid uptake expressed in HEK293 cells using 14C-uric acid as substrate preincubated for 30 mins followed by substrate addition and measured after 15 mins by liquid scintillation counting analysis; type: cell-based; conditions: Homo sapiens
[8] = Half life in Sprague-Dawley rat at 5 mg/kg, po measured upto 36 hrs by LC-MS/MS analysis; type: ADME, organism-based; conditions: in vivo
[9] = AUC (0 to infinity) in Sprague-Dawley rat at 5 mg/kg, po by LC-MS/MS analysis; type: ADME, organism-based; set-up: time infinity, dose 5 mg/kg, route po; conditions: in vivo
[10] = Tmax in Sprague-Dawley rat at 5 mg/kg, iv measured upto 36 hrs by LC-MS/MS analysis; type: ADME, organism-based; conditions: in vivo
[11] = target: T2, Solute carrier family 22 member 6 (Homo sapiens, UniProt Q4U2R8); test: Inhibition of OAT1 (unknown origin) expressed in HEK293 cells assessed as inhibition of 6-CFL uptake preincubated for 30 mins followed by incubation with 6-CFL and measured after 15 mins by fluorescence based analysis; type: toxicity, cell-based
T2 sequence (Q4U2R8 whole entry): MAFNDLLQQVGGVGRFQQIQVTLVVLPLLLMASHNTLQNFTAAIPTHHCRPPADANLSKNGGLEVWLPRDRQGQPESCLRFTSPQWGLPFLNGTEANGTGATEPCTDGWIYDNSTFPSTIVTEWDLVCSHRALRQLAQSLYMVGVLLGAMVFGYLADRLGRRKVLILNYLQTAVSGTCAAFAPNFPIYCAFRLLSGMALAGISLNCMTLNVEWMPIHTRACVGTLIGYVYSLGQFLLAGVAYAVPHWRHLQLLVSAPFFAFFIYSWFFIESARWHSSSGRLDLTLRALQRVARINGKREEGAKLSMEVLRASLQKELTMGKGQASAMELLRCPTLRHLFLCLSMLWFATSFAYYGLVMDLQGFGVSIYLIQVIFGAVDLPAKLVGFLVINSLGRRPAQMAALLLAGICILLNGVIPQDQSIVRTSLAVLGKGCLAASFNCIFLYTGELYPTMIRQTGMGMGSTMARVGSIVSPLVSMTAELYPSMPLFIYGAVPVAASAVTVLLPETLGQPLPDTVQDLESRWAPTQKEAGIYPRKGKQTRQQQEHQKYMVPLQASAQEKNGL

[12] = MRT (0 to infinity) in Sprague-Dawley rat at 5 mg/kg, iv by LC-MS/MS analysis; type: ADME, organism-based; conditions: in vivo
Mus musculus [13] = test: Anti-hyperuricemic activity against xanthine and potassium oxonate-induced acute hyperuricemia Kunming mouse model assessed as increase in urine uric acid concentration at 10 mg/kg, po measured for 24 hrs; type: functional
[14] = Oral bioavailability in Sprague-Dawley rat at 5 mg/kg measured upto 36 hrs by LC-MS/MS analysis; type: ADME, organism-based; conditions: in vivo
[15] = Inhibition of URAT1 I481M mutant (unknown origin)-mediated 14C-uric acid uptake expressed in HEK293 cells using 14C-uric acid as substrate preincubated for 30 mins followed by substrate addition and measured after 15 mins by liquid scintillation counting analysis; type: cell-based; conditions: Homo sapiens
[16] = Renal toxicity in xanthine and potassium oxonate-induced acute hyperuricemia Kunming mouse model assessed as serum creatinine level at 10 mg/kg, po measured after 3 hrs; type: organism-based; conditions: in vivo
Mus musculus [17] = test: Anti-hyperuricemic activity against xanthine and potassium oxonate-induced acute hyperuricemia Kunming mouse model assessed as serum uric acid concentration at 10 mg/kg, po measured after 3 hrs (reference value: 846.22 uM); type: functional
[18] = AUC (0 to infinity) in Sprague-Dawley rat at 5 mg/kg, iv by LC-MS/MS analysis; type: ADME, organism-based; set-up: time infinity, dose 5 mg/kg, route iv; conditions: in vivo
[19] = target: T3, Solute carrier family 2, facilitated glucose transporter member 9 (Homo sapiens) (UniProt Q9NRM0); test: Inhibition of GLUT9 (unknown origin) expressed in HEK293T cells assessed as inhibition of uric acid-induced current at 10 uM by whole cell patch clamp technique; type: cell-based
T3 sequence (whole entry): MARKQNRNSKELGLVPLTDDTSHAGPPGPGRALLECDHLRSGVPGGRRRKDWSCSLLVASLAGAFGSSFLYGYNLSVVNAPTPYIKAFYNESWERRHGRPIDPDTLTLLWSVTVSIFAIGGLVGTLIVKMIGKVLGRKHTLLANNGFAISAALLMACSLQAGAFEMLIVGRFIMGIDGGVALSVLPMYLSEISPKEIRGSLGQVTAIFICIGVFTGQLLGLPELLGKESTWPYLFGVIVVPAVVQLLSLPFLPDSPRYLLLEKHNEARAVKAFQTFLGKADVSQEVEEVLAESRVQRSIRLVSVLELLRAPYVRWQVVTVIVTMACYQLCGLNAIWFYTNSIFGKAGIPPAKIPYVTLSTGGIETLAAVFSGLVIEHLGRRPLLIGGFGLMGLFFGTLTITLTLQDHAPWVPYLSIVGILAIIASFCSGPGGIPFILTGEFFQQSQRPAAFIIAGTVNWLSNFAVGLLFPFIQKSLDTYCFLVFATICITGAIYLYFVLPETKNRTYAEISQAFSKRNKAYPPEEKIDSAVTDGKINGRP

IC50 [1]: 1.89 µM
IC50 [2]: 0.24 µM
MRT inf [3]: 3.17 h
half-life [4]: 4.19 h
Cmax [6]: 7650 ng/mL
IC50 [7]: 2.17 µM
half-life [8]: 5.14 h
AUC(0-inf) [9]: 5660 ng·h/mL
Tmax [10]: 0.17 h
MRT inf [12]: 4.8 h
bioavailability [14]: 30.1%
IC50 [15]: 0.31 µM
AUC(0-inf) [18]: 18500 ng·h/mL
inhibition [19]: 51%
Structure (SMILES): N#Cc1ccc(Nc2cnccc2SCc2ccccc2C(=O)[O-])c2ccccc12.[Na+]
IC50 at 48 h [5]: 167 µM
IC50 [11]: 32.1 µM
Activity (Mus musculus [13]): 2444.24 µM
Activity [16]: Non-Toxic
Activity (Mus musculus [17]): 645.8 µM
